{
  "source": "patent US8802678B2",
  "about": "“Carbonylated (aza) cyclohexanes as dopamine D3 receptor ligands” (Bioprojet, priority 2006, dated 2014)",
  "data": [
    {"units": {"melting point": "°C"}, "values": [
      {"compound": "COCC(=O)N[C@H]1CC[C@H](CCN2CCN(c3cc(C(F)(F)F)ccc3F)CC2)CC1", "note": "[Example 701, N-(4-{2-[4-(2-Fluoro-5-trifluoromethylphenyl)piperazin-1-yl]ethyl}cyclohexyl)-2-methoxyacetamide]", "melting point": 139},
      {"compound": "O=C(N[C@H]1CC[C@H](CCN2CCN(c3cc(C(F)(F)F)ccc3F)CC2)CC1)C1=CCCC1", "note": "[Example 705]", "melting point": 199},
      {"compound": "CS(=O)(=O)CC(=O)N[C@H]1CC[C@H](CCN2CCN(c3cc(C(F)(F)F)ccc3F)CC2)CC1", "note": "[Example 706, N-(4-{2-[4-(2-Fluoro-5-trifluoromethylphenyl)piperazin-1-yl]ethyl}cyclohexyl)-2-methanesulfonylacetamide]", "melting point": 192},
      {"compound": "N#CCC(=O)N[C@H]1CC[C@H](CCN2CCN(c3cc(F)c(F)c(F)c3F)CC2)CC1", "note": "[Example 708, 2-Cyano-N-(4-{2-[4-(2,3,4,5-tetrafluorophenyl)piperazin-1-yl]ethyl}cyclohexyl)acetamide]", "melting point": 214},
      {"compound": "N#CCC(=O)N[C@H]1CC[C@H](CCN2CCN(c3ccc(Cl)cc3Cl)CC2)CC1", "note": "[Example 709, 2-Cyano-N-(4-{2-[4-(2,4-dichlorophenyl)piperazin-1-yl]ethyl}cyclohexyl)acetamide]", "melting point": 189},
      {"compound": "CC(=O)CN1CCC(CCN2CCN(c3ccc4c(c3)OCCO4)CC2)CC1", "note": "[Example 711, 1-(4-{2-[4-(2,3-Dihydrobenzo[1,4]dioxin-6-yl)piperazin-1-yl]ethyl}piperidin-1-yl)propan-2-one]", "melting point": 126},
      {"compound": "COCCCC(=O)N[C@H]1CC[C@H](CCN2CCN(c3cc(C)cc(C)c3)CC2)CC1", "note": "[Example 715, N-(4-{2-[4-(3,5-Dimethylphenyl)-piperazin-1-yl]ethyl}cyclohexyl)-4-methoxybutanamide]", "melting point": 195},
      {"compound": "Cc1cc(C)cc(N2CCN(CC[C@H]3CC[C@H](NC(=O)CCC#N)CC3)CC2)c1", "note": "[Example 716, 3-Cyano-N-(4-{2-[4-(3,5-dimethylphenyl)piperazin-1-yl]ethyl}cyclohexyl)propanamide]", "melting point": 175},
      {"compound": "N#CCC(=O)N[C@H]1CC[C@H](CCN2CCN(c3cc(Cl)c(Cl)cc3Cl)CC2)CC1", "note": "[Example 717, 2-Cyano-N-(4-{2-[4-(2,4,5-trichlorophenyl)piperazin-1-yl]ethyl}cyclohexyl)acetamide]", "melting point": 200},
      {"compound": "COCC(=O)N[C@H]1CC[C@H](CCN2CCN(c3ccc(Cl)c(Cl)c3F)CC2)CC1", "note": "[Example 719, N-(4-{2-[4-(3,4-Dichloro-2-fluorophenyl)piperazin-1-yl]ethyl}cyclohexyl)-2-methoxyacetamide]", "melting point": 172},
      {"compound": "N#CCCC(=O)N[C@H]1CC[C@H](CCN2CCN(c3ccc(Cl)c(Cl)c3F)CC2)CC1", "note": "[Example 720, 3-Cyano-N-(4-{2-[4-(3,4-dichloro-2-fluorophenyl)piperazin-1-yl]ethyl}cyclohexyl)propanamide]", "melting point": 210},
      {"compound": "Cc1cc(F)cc(N2CCN(CC[C@H]3CC[C@H](NC(=O)CC#N)CC3)CC2)c1", "note": "[Example 725, 2-Cyano-N-(4-{2-[4-(3-fluoro-5-methylphenyl)piperazin-1-yl]ethyl}cyclohexyl)acetamide]", "melting point": 180},
      {"compound": "Cc1cc(F)cc(N2CCN(CC[C@H]3CC[C@H](NC(=O)CCCC#N)CC3)CC2)c1", "note": "[Example 726, 4-Cyano-N-(4-{2-[4-(3-fluoro-5-methylphenyl)piperazin-1-yl]ethyl}cyclohexyl)butanamide]", "melting point": 150},
      {"compound": "N#CCC(=O)N[C@H]1CC[C@H](CCN2CCN(c3ccc(Cl)c(Cl)c3Cl)CC2)CC1", "note": "[Example 729, 2-Cyano-N-(4-{2-[4-(2,3,4-trichlorophenyl)piperazin-1-yl]ethyl}cyclohexyl)acetamide]", "melting point": 217},
      {"compound": "N#CCCCCC(=O)N[C@H]1CC[C@H](CCN2CCN(c3cc(C(F)(F)F)ccc3F)CC2)CC1", "note": "[Example 731]", "melting point": 158},
      {"compound": "N#CCCC(=O)N[C@H]1CC[C@H](CCN2CCN(c3ccc(F)c(Cl)c3F)CC2)CC1", "note": "[Example 732, N-(4-{2-[4-(3-Chloro-2,4-difluorophenyl)piperazin-1-yl]ethyl}cyclohexyl)-3-cyanopropanamide]", "melting point": 190},
      {"compound": "N#CCCC(=O)N1CCC(CCN2CCN(c3cccc(Cl)c3Cl)CC2)CC1", "note": "[Example 733, 4-(4-{2-[4-(2,3-Dichlorophenyl)piperazin-1-yl]ethyl}piperidin-1-yl)-4-oxobutanonitrile]", "melting point": 94},
      {"compound": "COCC(=O)N[C@H]1CC[C@H](CCN2CCN(c3cccc(C(F)(F)F)c3C)CC2)CC1", "note": "[Example 734, 2-Methoxy-N-(4-{2-[4-(2-methyl-3-trifluoromethylphenyl)piperazin-1-yl]ethyl}cyclohexyl)acetamide]", "melting point": 159},
      {"compound": "COCCCC(=O)N[C@H]1CC[C@H](CCN2CCN(c3cccc(C(F)(F)F)c3C)CC2)CC1", "note": "[Example 735, 4-Methoxy-N-(4-{2-[4-(2-methyl-3-trifluoromethylphenyl)piperazin-1-yl]ethyl}cyclohexyl)butanamide]", "melting point": 173},
      {"compound": "O=C(CCC(F)(F)F)N[C@H]1CC[C@H](CCN2CCN(c3cc(C(F)(F)F)ccc3F)CC2)CC1", "note": "[Example 736, 4,4,4-Trifluoro-N-(4-{2-[4-(2-fluoro-5-trifluoromethyl-phenyl)piperazin-1-yl]ethyl}cyclohexyl)butanamide]", "melting point": 182},
      {"compound": "NC(=O)CC(=O)N[C@H]1CC[C@H](CCN2CCN(c3cc(C(F)(F)F)cc(C(F)(F)F)c3)CC2)CC1", "note": "[Example 738, N-(4-{2-[4-(3,5-Bistrifluoro-methylphenyl)piperazin-1-yl]ethyl}cyclohexyl)malonamide]", "melting point": 165},
      {"compound": "COCCCC(=O)N[C@H]1CC[C@H](CCN2CCN(c3cc(F)cc(Cl)c3)CC2)CC1", "note": "[Example 740, N-(4-{2-[4-(3-Chloro-5-fluorophenyl)piperazin-1-yl]ethyl}cyclohexyl)-4-methoxybutanamide]", "melting point": 177},
      {"compound": "COCCCC(=O)N[C@H]1CC[C@H](CCN2CCN(c3cc(C(F)(F)F)cc(C(F)(F)F)c3)CC2)CC1", "note": "[Example 741, N-(4-{2-[4-(3,5-Bistrifluoro-methylphenyl)piperazin-1-yl]ethyl}cyclohexyl)-4-methoxybutanamide]", "melting point": 168},
      {"compound": "COCC(=O)N[C@H]1CC[C@H](CCN2CCN(c3cc(F)cc(Cl)c3)CC2)CC1", "note": "[Example 742, N-(4-{2-[4-(3-Chloro-5-fluorophenyl)piperazin-1-yl]ethyl}cyclohexyl)-2-methoxyacetamide]", "melting point": 132},
      {"compound": "N#CCCC(=O)N[C@H]1CC[C@H](CCN2CCN(c3cc(F)cc(Cl)c3)CC2)CC1", "note": "[Example 743, N-(4-{2-[4-(3-Chloro-5-fluorophenyl)piperazin-1-yl]ethyl}cyclohexyl)-3-cyanopropanamide]", "melting point": 148},
      {"compound": "CC(=O)CN1CCC(CCN2CCN(c3cc(F)c(F)cc3F)CC2)CC1", "note": "[Example 744, 1-(4-{2-[4-(2,4,5-Trifluoro-phenyl)-piperazin-1-yl]ethyl}piperidin-1-yl)propan-2-one]", "melting point": 68},
      {"compound": "N#CCCCCC(=O)NC1CCC(CCN2CCN(c3cccc(C(F)(F)F)c3)CC2)CC1", "note": "(stereo not shown) [Example 745, 5-Cyano-pentanoic acid (4-{2-[4-(3-trifluoromethylphenyl)-piperazin-1-yl]ethyl}cyclohexyl) amide]", "melting point": 90},
      {"compound": "N#CCC(=O)N[C@H]1CC[C@H](CCN2CCN(c3c(F)c(F)c(F)c(F)c3F)CC2)CC1", "note": "[Example 753, 2-Cyano-N-{4-[2-(4-pentafluorophenylpiperazin-1-yl)ethyl]cyclohexyl}acetamide]", "melting point": 202},
      {"compound": "COCCCC(=O)N[C@H]1CC[C@H](CCN2CCN(c3ccc(F)c(C(F)(F)F)c3)CC2)CC1", "note": "[Example 754, N-(4-{2-[4-(4-Fluoro-3-trifluoromethylphenyl)piperazin-1-yl]ethyl}cyclohexyl)-4-methoxybutanamide]", "melting point": 177},
      {"compound": "COCCCC(=O)N[C@H]1CC[C@H](CCN2CCN(c3ccc(Cl)c(C(F)(F)F)c3)CC2)CC1", "note": "[Example 755, N-(4-{2-[4-(4-Chloro-3-trifluoromethylphenyl)piperazin-1-yl]ethyl}cyclohexyl)-4-methoxybutanamide]", "melting point": 171},
      {"compound": "N#CCCCC(=O)N[C@H]1CC[C@H](CCN2CCN(c3ccc(Cl)c(C(F)(F)F)c3)CC2)CC1", "note": "[Example 756, N-(4-{2-[4-(4-Chloro-3-trifluoromethylphenyl)piperazin-1-yl]ethyl}cyclohexyl)-4-cyanobutanamide]", "melting point": 126},
      {"compound": "COCCCC(=O)N[C@H]1CC[C@H](CCN2CCN(c3cc(F)cc(C(F)(F)F)c3)CC2)CC1", "note": "[Example 757, N-(4-{2-[4-(3-Fluoro-5-trifluoromethylphenyl)piperazin-1-yl]ethyl}cyclohexyl)-4-methoxybutanamide]", "melting point": 177},
      {"compound": "COCC(=O)N[C@H]1CC[C@H](CCN2CCN(c3ccc(F)c(C(F)(F)F)c3)CC2)CC1", "note": "[Example 760, N-(4-{2-[4-(4-Fluoro-3-trifluoromethylphenyl)piperazin-1-yl]ethyl}cyclohexyl)-2-methoxyacetamide]", "melting point": 146},
      {"compound": "COCCCC(=O)N[C@H]1CC[C@H](CCN2CCN(c3ccc(Cl)cc3Cl)CC2)CC1", "note": "[Example 761, N-(4-{2-[4-(2,4-Dichlorophenyl)piperazin-1-yl]ethyl}cyclohexyl)-4-methoxybutanamide]", "melting point": 171},
      {"compound": "N#CCCCC(=O)N[C@H]1CC[C@H](CCN2CCN(c3ccc(Cl)cc3Cl)CC2)CC1", "note": "[Example 762, 4-Cyano-N-(4-{2-[4-(2,4-dichlorophenyl)piperazin-1-yl]ethyl}cyclohexyl)butanamide]", "melting point": 162},
      {"compound": "N#CC1CC1C(=O)N[C@H]1CC[C@H](CCN2CCN(c3cc(C(F)(F)F)ccc3F)CC2)CC1", "note": "(stereo partly shown) [Example 763, 2-Cyano-cyclopropanecarb-oxylic acid (4-{2-[4-(2-fluoro-5-trifluoromethylphenyl)piperazin-1-yl]ethyl}cyclohexyl) amide]", "melting point": 196},
      {"compound": "N#CCCCC(=O)N[C@H]1CC[C@H](CCN2CCN(c3cc(Cl)c(Cl)cc3Cl)CC2)CC1", "note": "[Example 764, 4-Cyano-N-(4-{2-[4-(2,4,5-trichlorophenyl)piperazin-1-yl]ethyl}cyclohexyl)butanamide]", "melting point": 179}
    ]}
  ]
}
